The term pIC50 denotes the negative decadic logarithm of the IC50, by convention in mol/L.

The source of these data is US6689806B1, “Indolinone compounds as kinase inhibitors” (Sugen, Inc., priority 1999, dated 2004).

pIC50: −log10 of the molar value. Read-outs that look alike come from different tables or passages of the source. Bounds are passed on as bounds.

Common to all, as to type: cell-based
The target in one assay is T1, Her2 (Homo sapiens, UniProt P04626).
T1 construct: fused on or other part: P00533 (Epidermal growth factor receptor)
The experiment in a line: EGF-induced Her2-driven BrdU incorporation. To be noted: 3T3 cells with EGF-R/Her2 chimeric receptor, EGF 2 nM, read-out: BrdU DNA syn. HER2 IC50. On the procedure:
(§1) The cellular/biologic assays described herein measure the amount of DNA made in response to activation of a test kinase, which is a general measure of a proliferative response. The general procedure for this assay is as follows: a compound is introduced to cells expressing the test kinase, either naturally or recombinantly, for some period of time after which, if the test kinase is a receptor, a ligand known to activate the receptor is added. After incubation at least overnight, a DNA labeling reagent such as Bromodeoxy-uridine (BrdU) or 3H-thymidine is added. The amount of labeled DNA is detected with either an anti-BrdU antibody or by measuring radioactivity and is compared to control cells not contacted with a test compound.
EGF-Induced Her2-Driven BrdU Incorporation
(8) 3T3 cell line engineered to express a chimeric receptor having the extra-cellular domain of EGF-R and the intra-cellular domain of Her2.
(1) Cells are seeded at 8000 cells/well in DMEM, 10% CS, 2 mM Gln in a 96-well plate. Cells are incubated overnight at 37° C. in 5% CO2.
(§2) (2) After 24 hours, the cells are washed with PBS, and then are serum starved in serum free medium (0% CS DMEM with 0.1% BSA) for 24 hours.
(3) On day 3, ligand (EGF=2 nM, prepared in DMEM with 0.1% BSA) and test compounds are added to the cells simultaneously. The negative control wells receive serum free DMEM with 0.1% BSA only; the positive control cells receive the ligand (EGF) but no test compound. Test compounds are prepared in serum free DMEM with ligand in a 96 well plate, and serially diluted for 7 test concentrations.
(4) After 20 hours of ligand activation, diluted BrdU labeling reagent (1:100 in DMEM, 0.1% BSA) is added and the cells are incubated with BrdU (final concentration=[…]) for 1.5 hours.
(§3) (10) The absorbance of the samples are measured at 410 nm (in “dual wavelength” mode with a filter reading at 490 nm, as a reference wavelength) on a Dynatech ELISA plate reader.
Background: Incorporation of labelled thymidine or its analogues reports DNA synthesis.

In another assay the target is EGFR (Homo sapiens, UniProt P00533). The assay is described as follows: EGF-induced BrdU incorporation assay. Set-up: expressed in transfected cells; host or cells: 3T3. The note with it: 3T3 cells expressing human EGF-R, EGF 2 nM, read-out: BrdU DNA syn. EGFr IC50. On the procedure: as §1
EGF-Induced BrdU Incorporation Assay
(8) 3T3 cell line genetically engineered to express human EGF-R.
(1) Cells are seeded at 8000 cells/well in 10% CS, 2 mM Gin in DMEM, in a 96 well plate. Cells are incubated overnight at 37° C. in 5% CO2.
as §2
(3) On day 3, ligand (EGF, 2 nM, prepared in DMEM with 0.1%/BSA) and test compounds are added to the cells simultaneously. The negative control wells receive serum free DMEM with 0.1% BSA only; the positive control cells receive the ligand (EGF) but no test compound. Test compounds are prepared in serum free DMEM with ligand in a 96 well plate, and serially diluted for 7 test concentrations.
(§4) (4) After 20 hours of ligand activation, diluted BrdU labeling reagent (1: 100 in DMEM, 0.1% BSA) is added and the cells are incubated with BrdU (final concentration=10 μM) for 1.5 hours.
as §3

Another assay deals with PDGFR (Homo sapiens, UniProt P09619). The experiment in a line: PDGF-induced BrdU incorporation assay. To be noted: 3T3 cells expressing human PDGF-R, PDGF 3.8 nM. Details: expressed in transfected cells; host or cells: 3T3. The method, then: as §1
PDGF-Induced BrdU Incorporation Assay
(8) 3T3 cell line genetically engineered to express human PDGF-R.
(1) Cells are seeded at 8000 cells/well in DMEM, 10% CS, 2 mM Gln in a 96 well plate. Cells are incubated overnight at 37° C. in 5% CO2.
as §2
(3) On day 3, ligand (PDGF, 3.8 nM, prepared in DMEM with 0.1% BSA) and test compounds are added to the cells simultaneously. The negative control wells receive serum free DMEM with 0.1% BSA only; the positive control cells receive the ligand (PDGF) but no test compound. Test compounds are prepared in serum free DMEM with ligand in a 96 well plate, and serially diluted for 7 test concentrations.
as §4, §3

A further assay deals with SKOV3. The assay is described as follows: SKOV3 growth. The note with it: Homo sapiens, SK-OV-3; Table 5; SKOV3 cells.
The subject of a further assay is A431. The experiment in a line: A431 growth. The note with it: Homo sapiens, A-431; Table 5; A431 cells.
[1] abbreviates: Table 7, read-out: BrdU DNA syn. PDGFr IC50.
Setting [2] is: Table 5, read-out: BrdU DNA syn. PDFGr IC50.

Sequence of PDGFR (P09619 33-1106): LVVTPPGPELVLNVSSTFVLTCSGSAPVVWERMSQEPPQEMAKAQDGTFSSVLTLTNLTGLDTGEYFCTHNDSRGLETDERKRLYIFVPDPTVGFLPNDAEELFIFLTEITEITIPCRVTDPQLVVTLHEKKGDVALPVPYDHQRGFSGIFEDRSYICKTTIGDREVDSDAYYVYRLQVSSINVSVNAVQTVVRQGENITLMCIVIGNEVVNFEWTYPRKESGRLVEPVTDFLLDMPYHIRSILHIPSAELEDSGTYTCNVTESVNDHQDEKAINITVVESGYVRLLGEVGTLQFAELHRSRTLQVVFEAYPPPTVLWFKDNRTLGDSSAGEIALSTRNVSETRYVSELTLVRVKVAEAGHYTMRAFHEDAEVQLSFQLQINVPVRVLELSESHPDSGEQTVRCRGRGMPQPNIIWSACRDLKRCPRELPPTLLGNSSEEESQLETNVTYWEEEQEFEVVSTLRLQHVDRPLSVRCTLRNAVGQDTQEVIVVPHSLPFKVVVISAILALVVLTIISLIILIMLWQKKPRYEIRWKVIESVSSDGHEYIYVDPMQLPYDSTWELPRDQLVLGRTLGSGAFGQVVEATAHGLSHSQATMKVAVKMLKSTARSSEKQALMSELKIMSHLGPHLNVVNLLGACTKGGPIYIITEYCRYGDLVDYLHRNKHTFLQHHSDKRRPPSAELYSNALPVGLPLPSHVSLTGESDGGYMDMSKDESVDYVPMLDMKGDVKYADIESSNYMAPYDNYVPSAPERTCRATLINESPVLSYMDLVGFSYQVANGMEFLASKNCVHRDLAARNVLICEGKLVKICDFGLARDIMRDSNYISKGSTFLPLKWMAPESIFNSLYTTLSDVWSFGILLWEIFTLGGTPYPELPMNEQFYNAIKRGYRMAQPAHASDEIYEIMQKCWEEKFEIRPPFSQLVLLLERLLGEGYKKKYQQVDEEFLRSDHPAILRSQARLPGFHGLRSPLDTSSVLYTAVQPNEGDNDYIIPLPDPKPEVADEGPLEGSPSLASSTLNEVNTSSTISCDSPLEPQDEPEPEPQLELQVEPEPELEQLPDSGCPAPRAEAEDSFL
T1 sequence (P04626 676-1255 limits assumed): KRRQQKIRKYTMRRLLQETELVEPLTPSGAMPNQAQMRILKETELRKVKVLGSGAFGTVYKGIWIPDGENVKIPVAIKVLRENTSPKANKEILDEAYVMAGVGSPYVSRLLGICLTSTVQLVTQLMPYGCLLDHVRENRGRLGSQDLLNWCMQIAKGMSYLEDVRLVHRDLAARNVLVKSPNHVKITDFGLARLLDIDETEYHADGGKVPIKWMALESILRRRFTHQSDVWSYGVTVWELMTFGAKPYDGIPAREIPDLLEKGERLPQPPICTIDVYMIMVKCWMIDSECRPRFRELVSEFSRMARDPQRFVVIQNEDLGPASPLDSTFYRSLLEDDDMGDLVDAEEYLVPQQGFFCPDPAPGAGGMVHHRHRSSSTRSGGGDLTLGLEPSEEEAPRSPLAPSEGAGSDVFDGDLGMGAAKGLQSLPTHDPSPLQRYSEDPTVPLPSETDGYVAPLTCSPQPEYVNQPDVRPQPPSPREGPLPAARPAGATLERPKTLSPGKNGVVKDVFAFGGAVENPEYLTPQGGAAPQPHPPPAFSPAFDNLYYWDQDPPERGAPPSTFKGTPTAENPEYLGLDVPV
Sequence of EGFR (P00533 25-1210): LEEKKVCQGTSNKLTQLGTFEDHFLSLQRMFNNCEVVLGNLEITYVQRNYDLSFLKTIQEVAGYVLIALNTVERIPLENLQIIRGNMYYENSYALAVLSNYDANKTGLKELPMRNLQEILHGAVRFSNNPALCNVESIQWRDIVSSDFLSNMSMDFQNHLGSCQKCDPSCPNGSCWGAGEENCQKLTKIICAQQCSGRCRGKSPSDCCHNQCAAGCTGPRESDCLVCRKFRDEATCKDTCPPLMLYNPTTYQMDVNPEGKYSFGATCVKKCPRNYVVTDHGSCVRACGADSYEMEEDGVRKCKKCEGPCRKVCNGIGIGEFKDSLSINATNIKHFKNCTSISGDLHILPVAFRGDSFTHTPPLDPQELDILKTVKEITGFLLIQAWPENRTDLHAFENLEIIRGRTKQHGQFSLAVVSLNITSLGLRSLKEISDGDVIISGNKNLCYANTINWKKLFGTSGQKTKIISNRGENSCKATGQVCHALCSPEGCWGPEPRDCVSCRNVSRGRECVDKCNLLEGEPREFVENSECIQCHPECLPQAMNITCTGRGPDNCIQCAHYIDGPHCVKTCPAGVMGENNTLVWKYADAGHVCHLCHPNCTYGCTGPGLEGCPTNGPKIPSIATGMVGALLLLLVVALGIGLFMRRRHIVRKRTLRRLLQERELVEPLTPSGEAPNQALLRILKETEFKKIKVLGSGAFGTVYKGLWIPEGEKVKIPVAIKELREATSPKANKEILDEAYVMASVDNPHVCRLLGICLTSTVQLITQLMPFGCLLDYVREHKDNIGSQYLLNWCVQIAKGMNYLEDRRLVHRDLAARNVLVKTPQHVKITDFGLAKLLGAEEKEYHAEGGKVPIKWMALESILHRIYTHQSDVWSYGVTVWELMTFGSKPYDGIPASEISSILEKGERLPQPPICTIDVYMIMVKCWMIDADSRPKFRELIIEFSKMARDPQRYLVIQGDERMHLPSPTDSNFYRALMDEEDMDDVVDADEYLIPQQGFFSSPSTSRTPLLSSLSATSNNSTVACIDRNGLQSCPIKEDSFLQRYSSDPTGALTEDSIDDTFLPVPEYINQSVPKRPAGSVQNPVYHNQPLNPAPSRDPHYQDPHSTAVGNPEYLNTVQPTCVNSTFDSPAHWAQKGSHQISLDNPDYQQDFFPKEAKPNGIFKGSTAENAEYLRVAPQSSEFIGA

As for `Cc1ccc(O)c(C=C2C(=O)Nc3cccc(CCO)c32)n1` (racemic) [IN-022, 4-(2-Hydroxy-ethyl)-3-(3-hydroxy-6-methyl-pyridin-2-ylmethylene)-1,3-dihydro-indol-2-one], the pIC50 on Her2 (Table 7), on EGFR (Table 7) and on PDGFR (setting [1]) was under 4.30 throughout.
Consider `COc1ccc(CC2C(=O)Nc3ccc(F)cc32)cc1C1CCCC1` (stereo not drawn) [AAI-5, 3-(3-Cyclopentyl-4-methoxybenzyl)-5-fluoro-1,3-dihydroindol-2-one], for which the pIC50 at Her2 (Table 5) was 4.49; with SKOV3, 4.75; in the assay on A431, 5.28; at EGFR (Table 5) it was 4.52; on PDGFR (setting [2]) it was 4.49.
`COc1ccc(CC2C(=O)Nc3cc(NC(C)=O)ccc32)cc1-c1cccs1` (stereo not drawn) [AAI-6, N-[3-(4-Methoxy-3-thiophen-2-ylbenzyl)-2-oxo-2,3-dihydro-1H-indol-6-yl]-acetamide]: the pIC50 at Her2 (Table 5) was 4.56; on EGFR (Table 5), under 4.30; at PDGFR (setting [2]), under 4.30.
`CC(=O)Nc1ccc2c(c1)NC(=O)C2Cc1ccc(OCCN2CCOCC2)c(C2CCCCC2)c1` (stereo not drawn) [AAI-7, N-{3-[3-Cyclohexyl-4-(2-morpholin-4-ylethoxy)-benzyl]-2-oxo-2,3-dihydro-1H-indol-6-yl}-acetamide]: the figures for the pIC50 at Her2 (Table 5), on EGFR (Table 5) and on PDGFR (setting [2]) were 5.17, 4.55 and 4.51, respectively.
On the same counts, the results for `COc1ccc(CC2C(=O)Nc3ccc(CCN4CCOCC4)cc32)cc1-c1ccsc1` (stereo not drawn) [AAI-8, 3-(4-Methoxy-3-thiophen-3-ylbenzyl)-5-(2-morpholin-4-ylethyl)-1,3-dihydroindol-2-one] are 4.94, under 4.30 and under 4.30.
`COc1c(C(C)C)cc(CC2C(=O)Nc3ccccc32)cc1C(C)C` (stereo not drawn) [AAI-10, 3-(3,5-Diisopropyl-4-methoxybenzyl)-1,3-dihydroindol-2-one]: the pIC50 on Her2 (Table 5) is 4.47; with SKOV3 it was 4.76; with A431, 4.75; on EGFR (Table 5) it was under 4.30; on PDGFR (setting [2]) it was under 4.30.
With `O=C1Nc2ccc(F)cc2C1Cc1ccc(O)c(C2CCCC2)c1` (stereo not drawn) [AAI-11, 3-(3-Cyclopentyl-4-hydroxybenzyl)-5-fluoro-1,3-dihydroindol-2-one], the pIC50 is under 4.30 on Her2 (Table 5); 4.66 in the assay with SKOV3; 4.53 in the assay with A431; under 4.30 on EGFR (Table 5); under 4.30 on PDGFR (setting [2]).
Regarding `COc1cccc(-c2ccc3c(c2)NC(=O)C3Cc2ccccc2O)c1` (stereo not drawn) [AAI-13, 3-(2-Hydroxybenzyl)-6-(3-methoxyphenyl)-1,3-dihydroindol-2-one], the pIC50 at Her2 (Table 5), with SKOV3, in the assay with A431, at EGFR (Table 5) and at PDGFR (setting [2]) was under 4.30 each time.
As to `Cc1cccc2c1C(Cc1ccc3[nH]ccc3c1)C(=O)N2` (stereo not drawn) [AAI-16, 3-(1H-Indol-5-ylmethyl)-4-methyl-1,3-dihydroindol-2-one], the pIC50 on Her2 (Table 5), on EGFR (Table 5) and at PDGFR (setting [2]) was under 4.30 each time.
With `O=C1Nc2ccccc2C1Cc1ccc2[nH]ccc2c1` (stereo not drawn) [AAI-17, 3-(1H-Indol-5-ylmethyl)-1,3-dihydroindol-2-one], the pIC50 on Her2 (Table 5), on EGFR (Table 5) and at PDGFR (setting [2]) was under 4.30 in each case.
`Cc1[nH]c(CC2C(=O)Nc3ccccc32)c(C)c1CCCN(C)C` (stereo not drawn) [AAI-18, 3-[4-(3-Dimethylaminopropyl)-3,5-dimethyl-1H-pyrrol-2-ylmethyl]-1,3-dihydroindol-2-one]: the pIC50 on Her2 (Table 5) is under 4.30; in the assay on SKOV3, 4.37; with A431, under 4.30; on EGFR (Table 5), under 4.30; at PDGFR (setting [2]) it was 5.41.
Turning to `COc1ccccc1-c1ccc2c(c1)NC(=O)C2Cc1[nH]c(C)c(CCCN(C)C)c1C` (stereo not drawn) [AAI-20, 3-[4-(3-Dimethylamino-propyl)-3,5-dimethyl-1H-pyrrol-2-ylmethyl]-6-(2-methoxy-phenyl)-1,3-dihydro-indol-2-one], the pIC50 on Her2 (Table 5) was 4.53; in the assay on SKOV3, 5.06; in the assay with A431, 4.96; on EGFR (Table 5), 4.41; on PDGFR (setting [2]), 5.06.
Consider `COc1cccc(-c2ccc3c(c2)NC(=O)C3Cc2[nH]c(C)c(CCCN(C)C)c2C)c1` (stereo not drawn) [AAI-21, 3-[4-(3-Dimethylaminopropyl)-3,5-dimethyl-1H-pyrrol-2-ylmethyl]-6-(3-methoxyphenyl)-1,3-dihydroindol-2-one], for which the figures for the pIC50 on Her2 (Table 5), at EGFR (Table 5) and at PDGFR (setting [2]) were under 4.30, 4.56 and 5.92, respectively.
The like results for `Cc1[nH]c(CC2C(=O)Nc3ccc(Cl)cc32)c(C)c1CCCN(C)C` (stereo not drawn) [AAI-23, 5-Chloro-3-[4-(3-dimethylaminopropyl)-3,5-dimethyl-1H-pyrrol-2-ylmethyl]-1,3-dihydroindol-2-one] were, in that order, under 4.30, 4.49 and 6.46.
On the same counts, the results for `O=C1Nc2cc(-c3ccccc3)ccc2C1Cc1cccc(F)c1O` (stereo not drawn) [AAI-24, 3-(3-Fluoro-2-hydroxybenzyl)-6-phenyl-1,3-dihydroindol-2-one] are 4.51, under 4.30 and under 4.30.
On the same counts, the results for `COc1ccc(CC2C(=O)Nc3cc(-c4ccccc4)ccc32)c(O)c1` (stereo not drawn) [AAI-25, 3-(2-Hydroxy-4-methoxybenzyl)-6-phenyl-1,3-dihydroindol-2-one] are under 4.30, under 4.30 and under 4.30.
For `Cc1cccc(CC2C(=O)Nc3cccc(CCO)c32)n1` (stereo not drawn) [AAI-27, 4-(2-Hydroxyethyl)-3-(6-methylpyridin-2-ylmethyl)-1,3-dihydroindol-2-one], the pIC50 at Her2 (Table 5), at EGFR (Table 5) and at PDGFR (setting [2]) was under 4.30 in each case.
Take `O=C1Nc2cccc(CCO)c2/C1=C/c1ccccn1` [IN-005, 4-(2-Hydroxy-ethyl)-3-pyridin-2-ylmethylene-1,3-dihydro-indol-2-one]: the pIC50 at Her2 (Table 7) is 5.80; on EGFR (Table 7) it was 5.52; on PDGFR (setting [1]), 5.77.
On the same counts, the results for `Cc1[nH]c(/C=C2\C(=O)Nc3cccc(CCOc4cccc(C(C)C)c4)c32)c(C)c1CCCN(C)C` [IN-023] are 4.47, 4.54 and 4.63.
The like results for `Cc1[nH]c(/C=C2\C(=O)Nc3cccc(CCOc4ccc(C(C)C)cc4)c32)c(C)c1CCC(=O)O` [IN-024, 3-(5-{4-[2-(4-Isopropyl-phenoxy)-ethyl]-2-oxo-1,2-dihydro-indol-3-ylidenemethyl}-2,4-dimethyl-1H-pyrro-3-yl)-propionic acid] were, in that order, under 4.30, under 4.30 and 4.30.
